In ChEMBL document CHEMBL4196074, “Metallomics for Alzheimer's disease treatment: Use of new generation of chelators combining metal-cation binding and transport properties” (Eur J Med Chem, 2018):
Active and inactive are the calls of the source. Unless noted, no cut-off for these calls is given here.

Experiments:
SH-SY5Y [1] = test: Antiproliferative activity against human SH-SY5Y cells at 1 uM after 24 to 72 hrs by WST1 assay; assay type: cell-based
SH-SY5Y [2] = test: Inhibition of Zn2+-mediated amyloid beta (1 to 42 residues) production in human SH-SY5Y cells expressing APPswe mutant at 1 uM after 72 hrs by ELISA based spectrophotometric analysis; assay type: cell-based
SH-SY5Y [3] = test: Inhibition of Zn2+-mediated ROS generation in human SH-SY5Y cells expressing APPswe mutant at 1 uM after 72 hrs by DCF-DA dye-based fluorescence spectroscopic analysis; assay type: cell-based
[4] = biological target: Acetylcholinesterase (Homo sapiens) (UniProt P22303); test: Inhibition of acetylcholinesterase (unknown origin) at 1 uM using acetylthiocholine chloride as substrate measured for 5 to 40 mins
Acetylcholinesterase (Homo sapiens), sequence (P22303 whole entry, the tested form may be a part): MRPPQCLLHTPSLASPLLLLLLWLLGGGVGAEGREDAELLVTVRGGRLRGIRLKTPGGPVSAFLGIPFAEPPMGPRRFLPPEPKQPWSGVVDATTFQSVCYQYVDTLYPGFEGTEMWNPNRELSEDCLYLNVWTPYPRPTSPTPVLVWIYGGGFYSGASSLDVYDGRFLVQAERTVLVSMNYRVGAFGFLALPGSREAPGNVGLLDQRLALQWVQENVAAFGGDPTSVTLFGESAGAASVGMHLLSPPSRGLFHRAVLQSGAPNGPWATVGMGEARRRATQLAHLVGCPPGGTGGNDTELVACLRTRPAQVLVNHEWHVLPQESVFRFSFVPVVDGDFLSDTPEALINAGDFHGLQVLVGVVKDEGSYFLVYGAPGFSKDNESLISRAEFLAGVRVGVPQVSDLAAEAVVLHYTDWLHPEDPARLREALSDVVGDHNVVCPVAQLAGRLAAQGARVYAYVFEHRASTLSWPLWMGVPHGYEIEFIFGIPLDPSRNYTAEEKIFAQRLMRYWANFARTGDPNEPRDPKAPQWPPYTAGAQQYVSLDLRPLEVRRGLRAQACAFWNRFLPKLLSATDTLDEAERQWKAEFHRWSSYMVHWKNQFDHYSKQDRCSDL

SH-SY5Y [5] = test: Neuroprotective activity against amyloid beta (1 to 42 residues) induced cell death in human SH-SY5Y cells expressing APPswe mutant at 1 uM after 48 hrs by WST1 assay; assay type: functional, cell-based
[6] = Metal chelating activity assessed as compound-Zn2+ complex formation by UV-vis spectrophotometric analysis
[7] = Metal chelating activity assessed as compound-Fe3+ complex formation by UV-vis spectrophotometric analysis
[8] = Metal chelating activity assessed as compound-Cu2+ complex formation by UV-vis spectrophotometric analysis
SH-SY5Y [9] = test: Inhibition of Cu2+-mediated amyloid beta (1 to 42 residues) production in human SH-SY5Y cells expressing APPswe mutant at 1 uM after 72 hrs by ELISA based spectrophotometric analysis; assay type: cell-based
SH-SY5Y [10] = test: Inhibition of Fe3+-mediated amyloid beta (1 to 42 residues) production in human SH-SY5Y cells expressing APPswe mutant at 1 uM after 72 hrs by ELISA based spectrophotometric analysis; assay type: cell-based
SH-SY5Y [11] = test: Inhibition of Cu2+-mediated ROS generation in human SH-SY5Y cells expressing APPswe mutant at 1 uM after 72 hrs by DCF-DA dye-based fluorescence spectroscopic analysis; assay type: cell-based
SH-SY5Y [12] = test: Inhibition of Fe3+-mediated ROS generation in human SH-SY5Y cells expressing APPswe mutant at 1 uM after 72 hrs by DCF-DA dye-based fluorescence spectroscopic analysis; assay type: cell-based
[13] = Effective permeability of the compound at 10^-5 mol/L after 5 hrs by UV-based PAMPA; assay type: ADME; details: read-out: Peff
SH-SY5Y [14] = test: Antiproliferative activity against human SH-SY5Y cells at 1 uM after 48 hrs by WST1 assay; assay type: cell-based
SH-SY5Y [15] = test: Inhibition of Cu2+-induced caspase-3 activity in human SH-SY5Y cells expressing APPswe mutant at 1 uM after 72 hrs by AcDEVD substrate-based spectrophotometric analysis; assay type: cell-based
SH-SY5Y [16] = test: Inhibition of Cu2+-induced toxicity in human SH-SY5Y cells expressing APPswe mutant assessed as increase in cell viability at 1 uM after 72 hrs by WST1 assay; assay type: cell-based

CCN1/C(=C/c2c(N/N=C/c3ccc4ccccc4n3)c(=O)c2=O)Sc2ccccc21
Activity (SH-SY5Y [1]): Non-Toxic | inhibition (SH-SY5Y [2]): inactive | inhibition (SH-SY5Y [3]): inactive | inhibition [4]: inactive | Activity (SH-SY5Y [5]): inactive | Activity [6]: Active | Activity [7]: Active | Activity [8]: Active | inhibition (SH-SY5Y [9]): inactive | inhibition (SH-SY5Y [10]): inactive | inhibition (SH-SY5Y [11]): inactive | inhibition (SH-SY5Y [12]): inactive

COc1cccc(/C=N/NC(=O)c2ccc(NC(=O)CC[C@@H](C)[C@H]3CC[C@H]4[C@@H]5[C@H](O)C[C@@H]6C[C@H](O)CC[C@]6(C)[C@H]5C[C@H](O)[C@]34C)cc2)c1O (stereo in doubt)
Activity (SH-SY5Y [1]): Non-Toxic | inhibition (SH-SY5Y [2]): inactive | inhibition (SH-SY5Y [3]): inactive | inhibition [4]: inactive | Activity (SH-SY5Y [5]): inactive | Activity [6]: Active | Activity [7]: Active | Activity [8]: Active | inhibition (SH-SY5Y [9]): inactive | inhibition (SH-SY5Y [10]): inactive | inhibition (SH-SY5Y [11]): inactive | inhibition (SH-SY5Y [12]): inactive

COc1ccc(Nc2c(N/N=C/c3c(CO)cnc(C)c3O)c(=O)c2=O)cc1
Activity (SH-SY5Y [1]): Non-Toxic | Papp at 5 h, 10 µM [13]: 1.6 ×10⁻⁶ cm/s | inhibition [4]: inactive | Activity (SH-SY5Y [5]): inactive | Activity [6]: inactive | Activity [7]: Active | Activity [8]: Active | inhibition (SH-SY5Y [9]): inactive | inhibition (SH-SY5Y [10]): inactive | inhibition (SH-SY5Y [11]): inactive | inhibition (SH-SY5Y [12]): inactive

CCN1/C(=C/c2c(N/N=C/c3cc(C(C)(C)C)ccc3O)c(=O)c2=O)Sc2ccccc21
Activity (SH-SY5Y [1]): Non-Toxic | inhibition [4]: inactive | Activity (SH-SY5Y [5]): inactive | Activity [6]: inactive | Activity [7]: Active | Activity [8]: Active | inhibition (SH-SY5Y [9]): inactive | inhibition (SH-SY5Y [10]): inactive | inhibition (SH-SY5Y [11]): inactive | inhibition (SH-SY5Y [12]): inactive

C(=N\Nc1nncc2ccccc12)/c1ccc2ccccc2n1
Activity (SH-SY5Y [5]): inactive | Activity [6]: inactive | Activity [7]: inactive | Activity [8]: Active | Activity (SH-SY5Y [14]): Toxic | inhibition (SH-SY5Y [9]): inactive

COc1ccc(Nc2c(N/N=C/c3cccc(OC)c3O)c(=O)c2=O)cc1
Activity (SH-SY5Y [1]): Non-Toxic | inhibition [4]: inactive | Activity (SH-SY5Y [5]): inactive | Activity [6]: inactive | Activity [7]: Active | Activity [8]: Active | inhibition (SH-SY5Y [9]): inactive | inhibition (SH-SY5Y [10]): inactive | inhibition (SH-SY5Y [11]): inactive | inhibition (SH-SY5Y [12]): inactive

C[C@H](CCC(=O)Nc1ccc(C(=O)NN=C(c2ccccn2)c2ccccn2)cc1)[C@H]1CC[C@H]2[C@@H]3[C@H](O)C[C@@H]4C[C@H](O)CC[C@]4(C)[C@H]3C[C@H](O)[C@]12C
Activity (SH-SY5Y [1]): Non-Toxic | inhibition [4]: inactive | Activity (SH-SY5Y [5]): inactive | Activity [6]: inactive | Activity [7]: Active | Activity [8]: Active | inhibition (SH-SY5Y [9]): inactive | inhibition (SH-SY5Y [10]): inactive | inhibition (SH-SY5Y [11]): inactive | inhibition (SH-SY5Y [12]): inactive

CCN1/C(=C/c2c(N/N=C/c3c(CO)cnc(C)c3O)c(=O)c2=O)Sc2ccccc21
Activity (SH-SY5Y [1]): Non-Toxic | Papp at 5 h, 10 µM [13]: 2.8 ×10⁻⁶ cm/s | inhibition [4]: inactive | Activity (SH-SY5Y [5]): inactive | Activity [6]: inactive | Activity [7]: Active | Activity [8]: Active | inhibition (SH-SY5Y [9]): inactive | inhibition (SH-SY5Y [10]): inactive | inhibition (SH-SY5Y [11]): inactive | inhibition (SH-SY5Y [12]): inactive

C[C@H](CCC(=O)Nc1ccc(C(=O)N/N=C/c2ccc3ccccc3n2)cc1)[C@H]1CC[C@H]2[C@@H]3[C@H](O)C[C@@H]4C[C@H](O)CC[C@]4(C)[C@H]3C[C@H](O)[C@]12C (stereo in doubt)
Activity (SH-SY5Y [1]): Non-Toxic | inhibition (SH-SY5Y [2]): inactive | inhibition (SH-SY5Y [3]): inactive | inhibition [4]: inactive | Activity (SH-SY5Y [5]): inactive | Activity [6]: Active | Activity [7]: Active | Activity [8]: Active | inhibition (SH-SY5Y [9]): inactive | inhibition (SH-SY5Y [10]): inactive | inhibition (SH-SY5Y [11]): inactive | inhibition (SH-SY5Y [12]): inactive

Cc1ncc(CO)c(/C=N/NC(=O)c2ccc(NC(=O)CC[C@@H](C)[C@H]3CC[C@H]4[C@@H]5[C@H](O)C[C@@H]6C[C@H](O)CC[C@]6(C)[C@H]5C[C@H](O)[C@]34C)cc2)c1O (stereo in doubt)
Activity (SH-SY5Y [1]): Non-Toxic | inhibition (SH-SY5Y [2]): inactive | inhibition (SH-SY5Y [3]): inactive | Papp at 5 h, 10 µM [13]: 2.2 ×10⁻⁶ cm/s | inhibition [4]: inactive | Activity (SH-SY5Y [5]): inactive | Activity [6]: Active | Activity [7]: Active | Activity [8]: Active | inhibition (SH-SY5Y [9]): inactive | inhibition (SH-SY5Y [10]): inactive | inhibition (SH-SY5Y [11]): inactive | inhibition (SH-SY5Y [12]): inactive

CC(C)(C)c1ccc(O)c(/C=N/Nc2nncc3ccccc23)c1
inhibition (SH-SY5Y [2]): inactive | Activity (SH-SY5Y [5]): inactive | Activity [6]: Active | Activity [7]: Active | Activity [8]: Active | Activity (SH-SY5Y [14]): Toxic | inhibition (SH-SY5Y [9]): inactive | inhibition (SH-SY5Y [10]): inactive

Oc1c(I)cc(Cl)c2cccnc12
inhibition (SH-SY5Y [2]): Active | inhibition (SH-SY5Y [9]): Active | inhibition (SH-SY5Y [10]): Active

COc1cccc(/C=N/NC(=O)CC[C@@H](C)[C@H]2CC[C@H]3[C@@H]4[C@H](O)C[C@@H]5C[C@H](O)CC[C@]5(C)[C@H]4C[C@H](O)[C@]23C)c1O
Activity (SH-SY5Y [1]): Non-Toxic | inhibition [4]: inactive | Activity (SH-SY5Y [5]): Active | Activity [6]: inactive | Activity [7]: inactive | Activity [8]: Active | inhibition (SH-SY5Y [9]): inactive | inhibition (SH-SY5Y [15]): Active | inhibition (SH-SY5Y [16]): Active

C[C@H](CCC(=O)Nc1ccc(C(=O)N/N=C/c2ccc(C(C)(C)C)cc2O)cc1)[C@H]1CC[C@H]2[C@@H]3[C@H](O)C[C@@H]4C[C@H](O)CC[C@]4(C)[C@H]3C[C@H](O)[C@]12C (stereo in doubt)
Activity (SH-SY5Y [1]): Non-Toxic | inhibition (SH-SY5Y [2]): inactive | inhibition (SH-SY5Y [3]): inactive | inhibition [4]: inactive | Activity (SH-SY5Y [5]): inactive | Activity [6]: Active | Activity [7]: Active | Activity [8]: Active | inhibition (SH-SY5Y [9]): inactive | inhibition (SH-SY5Y [10]): inactive | inhibition (SH-SY5Y [11]): inactive | inhibition (SH-SY5Y [12]): inactive

COc1ccc(Nc2c(N/N=C/c3ccc4ccccc4n3)c(=O)c2=O)cc1
Activity (SH-SY5Y [1]): Non-Toxic | inhibition [4]: inactive | Activity (SH-SY5Y [5]): inactive | Activity [6]: inactive | Activity [7]: Active | Activity [8]: Active | inhibition (SH-SY5Y [9]): inactive | inhibition (SH-SY5Y [10]): inactive | inhibition (SH-SY5Y [11]): inactive | inhibition (SH-SY5Y [12]): inactive

c1ccc(C(=NNc2nncc3ccccc23)c2ccccn2)nc1
inhibition (SH-SY5Y [2]): inactive | Activity (SH-SY5Y [5]): inactive | Activity [6]: Active | Activity [7]: Active | Activity [8]: Active | Activity (SH-SY5Y [14]): Toxic | inhibition (SH-SY5Y [9]): inactive | inhibition (SH-SY5Y [10]): inactive

CCN1/C(=C/c2c(N/N=C/c3cccc(OC)c3O)c(=O)c2=O)Sc2ccccc21
Activity (SH-SY5Y [1]): Non-Toxic | inhibition [4]: inactive | Activity (SH-SY5Y [5]): inactive | Activity [6]: inactive | Activity [7]: Active | Activity [8]: Active | inhibition (SH-SY5Y [9]): inactive | inhibition (SH-SY5Y [10]): inactive | inhibition (SH-SY5Y [11]): inactive | inhibition (SH-SY5Y [12]): inactive

Cc1ncc(CO)c(/C=N/Nc2nncc3ccccc23)c1O
Papp at 5 h, 10 µM [13]: 7.8 ×10⁻⁶ cm/s | Activity (SH-SY5Y [5]): inactive | Activity [6]: inactive | Activity [7]: Active | Activity [8]: Active | Activity (SH-SY5Y [14]): Toxic | inhibition (SH-SY5Y [9]): inactive | inhibition (SH-SY5Y [10]): inactive

COc1ccc(Nc2c(N/N=C/c3ccc(C(C)(C)C)cc3O)c(=O)c2=O)cc1
Activity (SH-SY5Y [1]): Non-Toxic | inhibition [4]: inactive | Activity (SH-SY5Y [5]): inactive | Activity [6]: inactive | Activity [7]: Active | Activity [8]: Active | inhibition (SH-SY5Y [9]): inactive | inhibition (SH-SY5Y [10]): inactive | inhibition (SH-SY5Y [11]): inactive | inhibition (SH-SY5Y [12]): inactive

COc1cccc(/C=N/Nc2nncc3ccccc23)c1O
inhibition (SH-SY5Y [2]): inactive | Activity (SH-SY5Y [5]): inactive | Activity [6]: Active | Activity [7]: Active | Activity [8]: Active | Activity (SH-SY5Y [14]): Toxic | inhibition (SH-SY5Y [9]): inactive | inhibition (SH-SY5Y [10]): inactive
